Assay [1] in a line: Inhibition of Burkholderia pseudomallei gamma carbonic anhydrase preincubated with enzyme for 15 mins by phenol red-based stopped-flow CO2 hydration assay.
Assay [2] can be described thus: Selectivity index, ratio of Ki for Vibrio cholerae alpha carbonic anhydrase to Ki for human carbonic anhydrase 2.
Assay [3] is described as follows: Inhibition of Vibrio cholerae gamma carbonic anhydrase preincubated with enzyme for 15 mins by phenol red-based stopped-flow CO2 hydration assay.
Assay [4] can be described thus: Inhibition of Vibrio cholerae alpha carbonic anhydrase preincubated with enzyme for 15 mins by phenol red-based stopped-flow CO2 hydration assay.
Assay [5] in a line: Selectivity index, ratio of Ki for Vibrio cholerae beta carbonic anhydrase to Ki for human carbonic anhydrase 2.
Assay [6] in a line: Selectivity index, ratio of Ki for Burkholderia pseudomallei beta carbonic anhydrase to Ki for human carbonic anhydrase 2.
A short description of assay [7]: Selectivity index, ratio of Ki for Burkholderia pseudomallei gamma carbonic anhydrase to Ki for human carbonic anhydrase 2.
Assay [8] is described as follows: Inhibition of Vibrio cholerae beta carbonic anhydrase preincubated with enzyme for 15 mins by phenol red-based stopped-flow CO2 hydration assay.
Assay [9] can be described thus: Inhibition of Burkholderia pseudomallei beta carbonic anhydrase preincubated with enzyme for 15 mins by phenol red-based stopped-flow CO2 hydration assay.
The nature of assay [10]: Selectivity index, ratio of Ki for Vibrio cholerae gamma carbonic anhydrase to Ki for human carbonic anhydrase 2.

Take `NS(=O)(=O)c1ccc(N2CCCCS2(=O)=O)cc1`: the Ki in assay [1] is greater than 50 µM.

Turning to `NS(=O)(=O)c1ccc(CCN2CN(Cc3c(F)cccc3F)CCS2(=O)=O)cc1`, the Ratio Ki in [2] came to 0.14; in assay [5] it was 16.9; in assay [6] it was 7; in [7], 0.3; in assay [10], 156. Moreover, the Ki amounted to 8.81 µM in [3]; 0.008 µM in assay [4]; 0.952 µM in assay [8]; 0.393 µM in assay [9]; 0.0195 µM in assay [1].

Take `NS(=O)(=O)c1ccc(N2CN(Cc3cccc(Cl)c3)CCS2(=O)=O)cc1`: the Ki in assay [3] stood at 6.77 µM; in assay [4], 0.0377 µM; in assay [8], 3.97 µM; in assay [9], 0.416 µM; in assay [1], 0.0687 µM.

`NS(=O)(=O)c1ccc(N2CN(Cc3c(F)c(F)c(F)c(F)c3F)CCS2(=O)=O)cc1`: the Ki turned out to be 8.11 µM in [3]; 0.0085 µM in assay [4]; 4.44 µM in [8]; 0.0818 µM in [9]; 0.824 µM in assay [1].

The values above are taken from ChEMBL document CHEMBL4814065, “Taurultams incorporating arylsulfonamide: First in vitro inhibition studies of α-, β- and γ-class Carbonic Anhydrases from Vibrio cholerae and Burkholderia pseudomallei” (Eur J Med Chem, 2021).
